Laboratory results from paper PMC6385645 (Chemical Science, 2018).
Ends that are not written are not given here. Peptide text beside a SMILES is read from it. * marks the point of attachment. X1 = Nc1ncnc2c1ncn2[C@@H]1O[C@H](COP(=O)(O)NC(=O)[C@H](CC(=O)O)N*)[C@@H](O)[C@H]1O; For = O=C*

Columns and labels:
wild type MccB = test: Competition FP binding assay, wild type MccB, fMccA-FITC probe; set-up: species or system E. coli; settings: even at concentrations greater than 5 mM
MccB = test: PNP-coupled Michaelis–Menten kinetics of MccB; settings: wild-type MccB
YejABEF importer = settings: 4 vs the peptide lacking the N-formyl moiety 3; cited from earlier work

| Molecule | displacement of bound FITC-labeled N-formylated 2 (wild type MccB) | substrate inhibition of MccB (MccB) | substrate quality for YejABEF importer (YejABEF importer) |
| --- | --- | --- | --- |
| MRTGNAN [compound 1] | could not displace | but not with the desformyl 1 peptide | – |
| CSCC[C@H](NC=O)C(=O)N[C@@H](CCCNC(=N)N)C(=O)N[C@H](C(=O)NCC(=O)N[C@@H](CC(N)=O)C(=O)N[C@@H](C)C(=O)N[C@@H](CC(=O)O)C(=O)NP(=O)(O)OC[C@H]1O[C@@H](n2cnc3c(N)ncnc32)[C@H](O)[C@@H]1O)[C@@H](C)O [compound 4] (For-MRTGNA-X1) | – | – | significantly better substrate |
